From US12172985B1, “6-(6-bromo-2-oxo-2H-chromen-3-yl)-4-(3-bromophenyl)-2-alkoxynicotinonitrile as antimicrobial compounds” (KING FAISAL UNIVERSITY, priority 2023, dated 2024) come the findings set out here.

Common to all, as to format: cell-based
One test relates to Bacillus Cereus. Put plainly: Agar plate disc-diffusion, antibacterial inhibition zone. As to conditions: DMSO control zone subtracted. On the procedure: (§1) The agar plate disc-diffusion method was applied. Sterilized filter papers (6 mm in diameter) were wetted with 10 μL of a solution of compounds 6-(6-bromo-2-oxo-2H-chromen-3-yl)-4-(3-bromophenyl)-2-ethoxynicotinonitrile 1 or 6-(6-bromo-2-oxo-2H-chromen-3-yl)-4-(3-bromophenyl)-2-methoxynicotinonitrile 2 to be tested, containing […], and the discs were allowed to air dry. The discs were then placed onto the surface of agar plates (nutrient agar for bacteria and Sabouraud's dextrose agar for fungi) seeded with the test organism. Each plate contained 15 mL of the agar medium, previously seeded with 0.2 mL of the broth culture of each organism pregrown for 18 hours. The plates were incubated at 37° C. for 48 hours, and 72 hours for fungi. The inhibition zones were measured in mm. Discs impregnated with DMSO were used as a control, and its inhibition zone was subtracted from the tested compound actual inhibition zone.
(§2) The results of the antimicrobial testing can be observed in Tables 1 and 2, below, using ciprofloxacin as a reference.

The test system of a further test is Escherichia coli. The test is described as above. As to conditions: DMSO control zone subtracted. On the procedure: as §1, §2
Another test has as its system Pseudomonas aeruginosa. The description is as above. The settings on record: DMSO control zone subtracted. The protocol:
as §1, §2

A further test has as its system Staphylococcus aureus. Described as above. As to conditions: DMSO control zone subtracted. The protocol:
as §1, §2

The test system of the next test is Aspergillus flavus. Briefly: Agar plate disc-diffusion, antifungal inhibition zone. The settings on record: DMSO control zone subtracted. On the procedure: as §1, §2
For test [1], the system named is Chrysosporium keratinophilum. Described as above. The settings on record: DMSO control zone subtracted. The protocol: as §1, §2
Another test deals with different microbes. Put plainly: Antimicrobial testing, overall conclusion. The settings on record: summary of Tables 1 and 2, bacteria and fungi. On the procedure:
as §1, §2
Their antibacterial activity was screened against gram positive bacteria namely Bacillus cereus and Staphylococcus aureus and gram-negative bacterial strains namely Pseudomonas aeruginosa and Escherichia coli, while their antifungal activity was screened against Aspergillus flavus and Chrysosporium keratinophilum.

Setting [2] is: B = concentration of comp. = 30,000 μL.
Setting [3] is: C = concentration of comp. = 50,000 μL.
Where [4] appears, read: A = concentration of comp. = 10,000 μL.

Turning to `O=C(O)c1cn(C2CC2)c2cc(N3CCNCC3)c(F)cc2c1=O` [Cip., ciprofloxacin, reference compound], the inhibition zone is 29 mm in the test on Bacillus Cereus (A =); 30 mm in the test on Bacillus Cereus (setting [2]); 42 mm with Bacillus Cereus (setting [3]); 30 mm in the test on Escherichia coli (setting [4]); 39 mm in the test with Escherichia coli (setting [2]); 60 mm with Escherichia coli (setting [3]). The inhibition zone in the test on Pseudomonas aeruginosa (A = concentration of comp.) came out at 29 mm; in the test with Pseudomonas aeruginosa (setting [2]), 30 mm; with Pseudomonas aeruginosa (setting [3]), 53 mm; in the test on Staphylococcus aureus (setting [4]), 43 mm; with Staphylococcus aureus (setting [2]), 44 mm; in the test with Staphylococcus aureus (setting [3]) it was 53 mm. Also, the inhibition zone with Aspergillus flavus (setting [4]) was 29 mm; in the test with Aspergillus flavus (setting [2]), 30 mm; in the test on Aspergillus flavus (setting [3]), 42 mm; in test [1] (setting [4]), 29 mm; in test [1] (setting [2]) it was 30 mm; in test [1] (setting [3]), 53 mm.
Consider `CCOc1nc(-c2cc3cc(Br)ccc3oc2=O)cc(-c2cccc(Br)c2)c1C#N` [Compound 1, 6-(6-bromo-2-oxo-2H-chromen-3-yl)-4-(3-bromophenyl)-2-ethoxynicotinonitrile], for which the inhibition zone is recorded as 23 mm with Bacillus Cereus (A =); 26 mm in the test with Bacillus Cereus (setting [2]); 36 mm in the test on Bacillus Cereus (setting [3]); 28 mm in the test on Escherichia coli (setting [4]); 37 mm in the test on Escherichia coli (setting [2]); 48 mm in the test on Escherichia coli (setting [3]). The inhibition zone came out at 24 mm with Pseudomonas aeruginosa (A = concentration of comp.); 28 mm with Pseudomonas aeruginosa (setting [2]); 38 mm with Pseudomonas aeruginosa (setting [3]); 16 mm with Staphylococcus aureus (setting [4]); 19 mm in the test with Staphylococcus aureus (setting [2]); 33 mm in the test on Staphylococcus aureus (setting [3]). Moreover, the inhibition zone with Aspergillus flavus (setting [4]) is given as 20 mm; in the test on Aspergillus flavus (setting [2]), 24 mm; with Aspergillus flavus (setting [3]) it was 34 mm; in test [1] (setting [4]), 25 mm; in test [1] (setting [2]), 28 mm; in test [1] (setting [3]) it was 39 mm. For the same compound, the “antimicrobial activities (in words)” value in the test with different microbes is listed as “high antimicrobial activities”.
Regarding `COc1nc(-c2cc3cc(Br)ccc3oc2=O)cc(-c2cccc(Br)c2)c1C#N` [Compound 2, 6-(6-bromo-2-oxo-2H-chromen-3-yl)-4-(3-bromophenyl)-2-methoxynicotinonitrile], the inhibition zone in the test on Bacillus Cereus (A =) worked out at 27 mm; with Bacillus Cereus (setting [2]) it was 29 mm; in the test on Bacillus Cereus (setting [3]), 37 mm; with Escherichia coli (setting [4]), 28 mm; in the test on Escherichia coli (setting [2]), 35 mm; in the test on Escherichia coli (setting [3]), 48 mm. The inhibition zone in the test on Pseudomonas aeruginosa (A = concentration of comp.) is listed as 25 mm; with Pseudomonas aeruginosa (setting [2]), 32 mm; in the test with Pseudomonas aeruginosa (setting [3]), 37 mm; in the test with Staphylococcus aureus (setting [4]) it was 15 mm; in the test on Staphylococcus aureus (setting [2]) it was 23 mm; in the test on Staphylococcus aureus (setting [3]), 29 mm. Also, the inhibition zone with Aspergillus flavus (setting [4]) was 24 mm; with Aspergillus flavus (setting [2]), 27 mm; in the test on Aspergillus flavus (setting [3]), 39 mm; in test [1] (setting [4]), 24 mm; in test [1] (setting [2]), 28 mm; in test [1] (setting [3]), 42 mm. In the test on different microbes, the “antimicrobial activities (in words)” value is given as “high antimicrobial activities”.
